# Values of other authors, collected in patent publication US12569481B2, “Methods of treatment for gastrointestinal motility disorders” (Vanderbilt University, priority 2020, dated 2026).
# Tests used:
# [1] = test system: human colon muscle strips
# [2] = target: cardiac late sodium current (late INa) (Homo sapiens, UniProt Q14524)
# [3] = target: KCNH2-encoded hERG K+ channels (Homo sapiens, UniProt Q12809); conditions: channels found in cardiac muscle and intestinal smooth muscle
# [4] = room temperature; over-encapsulated 500 mg extended release tablets
# [5] = target: T1, sodium current in human colon SMCs (Homo sapiens, UniProt Q14524)
# T1 construct: sodium current in human colon SMCs; endogenous in cells; host or cells: human colon smooth muscle cells (SMCs)
# [6] = not given; remark: listed apart in the source
# Chain of cardiac late sodium current (late INa) (Q14524 whole entry): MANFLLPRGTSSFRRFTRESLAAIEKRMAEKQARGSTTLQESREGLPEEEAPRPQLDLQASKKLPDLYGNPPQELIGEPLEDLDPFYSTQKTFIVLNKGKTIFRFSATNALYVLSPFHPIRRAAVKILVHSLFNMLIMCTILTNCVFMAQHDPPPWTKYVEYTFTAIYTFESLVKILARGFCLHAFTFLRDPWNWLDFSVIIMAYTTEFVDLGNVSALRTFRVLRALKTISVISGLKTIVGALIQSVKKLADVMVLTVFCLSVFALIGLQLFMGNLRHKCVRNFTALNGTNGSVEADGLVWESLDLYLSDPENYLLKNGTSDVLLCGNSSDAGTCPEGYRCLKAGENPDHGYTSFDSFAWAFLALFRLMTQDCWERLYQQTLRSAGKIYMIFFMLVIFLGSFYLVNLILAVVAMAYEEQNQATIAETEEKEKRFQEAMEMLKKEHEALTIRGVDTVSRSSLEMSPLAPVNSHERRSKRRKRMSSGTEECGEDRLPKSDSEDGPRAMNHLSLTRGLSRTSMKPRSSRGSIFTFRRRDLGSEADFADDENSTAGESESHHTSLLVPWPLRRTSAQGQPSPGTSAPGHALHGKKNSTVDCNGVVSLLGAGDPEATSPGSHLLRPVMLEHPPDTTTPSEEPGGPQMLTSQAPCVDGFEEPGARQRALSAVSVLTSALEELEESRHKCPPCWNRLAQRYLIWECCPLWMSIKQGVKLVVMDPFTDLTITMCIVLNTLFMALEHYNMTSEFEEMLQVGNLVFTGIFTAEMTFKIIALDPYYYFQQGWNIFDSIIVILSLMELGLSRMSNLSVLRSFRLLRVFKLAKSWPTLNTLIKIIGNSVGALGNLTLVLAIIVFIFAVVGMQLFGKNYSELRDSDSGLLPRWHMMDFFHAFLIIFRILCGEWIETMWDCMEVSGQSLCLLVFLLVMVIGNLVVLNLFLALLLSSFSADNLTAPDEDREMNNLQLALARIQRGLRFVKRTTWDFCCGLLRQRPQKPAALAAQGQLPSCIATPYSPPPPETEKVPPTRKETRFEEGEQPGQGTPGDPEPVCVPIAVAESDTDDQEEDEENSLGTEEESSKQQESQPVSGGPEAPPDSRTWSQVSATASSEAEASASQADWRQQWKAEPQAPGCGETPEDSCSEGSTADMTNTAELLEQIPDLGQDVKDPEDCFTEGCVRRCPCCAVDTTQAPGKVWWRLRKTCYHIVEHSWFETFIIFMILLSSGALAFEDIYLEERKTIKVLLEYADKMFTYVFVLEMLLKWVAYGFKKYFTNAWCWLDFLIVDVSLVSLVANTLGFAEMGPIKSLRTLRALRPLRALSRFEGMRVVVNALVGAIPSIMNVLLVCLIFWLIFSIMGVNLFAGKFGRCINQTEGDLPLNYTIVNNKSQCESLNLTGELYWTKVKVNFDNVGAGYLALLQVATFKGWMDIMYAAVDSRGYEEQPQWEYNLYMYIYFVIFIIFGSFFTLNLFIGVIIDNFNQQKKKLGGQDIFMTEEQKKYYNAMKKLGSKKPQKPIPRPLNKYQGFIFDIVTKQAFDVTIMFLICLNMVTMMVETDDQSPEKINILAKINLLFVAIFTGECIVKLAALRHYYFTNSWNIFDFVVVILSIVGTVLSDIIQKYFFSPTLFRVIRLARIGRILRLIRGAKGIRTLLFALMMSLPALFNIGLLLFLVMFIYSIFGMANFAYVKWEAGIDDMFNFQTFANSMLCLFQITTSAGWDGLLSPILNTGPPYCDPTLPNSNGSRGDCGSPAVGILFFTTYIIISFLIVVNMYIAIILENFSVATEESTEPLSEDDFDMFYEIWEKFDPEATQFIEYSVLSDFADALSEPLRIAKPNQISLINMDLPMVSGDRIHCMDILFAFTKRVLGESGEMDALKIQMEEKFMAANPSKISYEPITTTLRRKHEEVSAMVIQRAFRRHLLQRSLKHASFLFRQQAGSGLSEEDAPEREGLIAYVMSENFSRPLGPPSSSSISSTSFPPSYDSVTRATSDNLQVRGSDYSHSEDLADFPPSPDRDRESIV
# Chain of KCNH2-encoded hERG K+ channels (Q12809 whole entry): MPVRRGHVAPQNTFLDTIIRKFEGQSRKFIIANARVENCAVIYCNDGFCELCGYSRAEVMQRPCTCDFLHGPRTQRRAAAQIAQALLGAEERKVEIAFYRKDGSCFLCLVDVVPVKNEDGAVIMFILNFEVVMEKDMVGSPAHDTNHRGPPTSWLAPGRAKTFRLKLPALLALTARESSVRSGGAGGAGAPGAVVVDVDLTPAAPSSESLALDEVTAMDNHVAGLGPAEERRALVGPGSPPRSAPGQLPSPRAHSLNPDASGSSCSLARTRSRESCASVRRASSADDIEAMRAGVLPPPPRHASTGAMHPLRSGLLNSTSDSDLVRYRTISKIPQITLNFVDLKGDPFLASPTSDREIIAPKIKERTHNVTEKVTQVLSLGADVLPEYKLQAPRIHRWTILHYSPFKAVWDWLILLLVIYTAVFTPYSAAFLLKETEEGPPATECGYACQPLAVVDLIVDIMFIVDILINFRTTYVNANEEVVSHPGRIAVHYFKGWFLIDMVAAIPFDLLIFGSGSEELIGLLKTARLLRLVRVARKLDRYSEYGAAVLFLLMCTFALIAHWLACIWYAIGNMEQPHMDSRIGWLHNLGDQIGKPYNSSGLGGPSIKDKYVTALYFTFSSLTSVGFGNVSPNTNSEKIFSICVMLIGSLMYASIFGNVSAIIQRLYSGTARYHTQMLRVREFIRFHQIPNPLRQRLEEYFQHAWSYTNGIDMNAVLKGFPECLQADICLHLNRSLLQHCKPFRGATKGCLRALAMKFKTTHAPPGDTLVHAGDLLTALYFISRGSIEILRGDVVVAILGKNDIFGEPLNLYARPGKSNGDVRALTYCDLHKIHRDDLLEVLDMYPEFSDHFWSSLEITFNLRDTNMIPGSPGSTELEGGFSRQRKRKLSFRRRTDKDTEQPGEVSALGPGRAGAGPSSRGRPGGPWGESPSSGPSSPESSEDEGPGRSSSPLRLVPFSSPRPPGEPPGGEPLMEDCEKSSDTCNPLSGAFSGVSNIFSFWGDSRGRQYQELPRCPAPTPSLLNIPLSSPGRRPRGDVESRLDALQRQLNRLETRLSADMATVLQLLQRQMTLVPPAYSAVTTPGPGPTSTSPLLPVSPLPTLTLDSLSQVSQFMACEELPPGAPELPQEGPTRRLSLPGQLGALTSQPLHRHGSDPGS
compound,measurement,setting,value
COc1ccccc1OCC(O)CN1CCN(CC(=O)Nc2c(C)cccc2C)CC1 (centres unmarked) [Ranolazine],effect on contractility,[1],decreases contractility
same,selectivity for late INa vs peak INa,[2]; late INa vs peak INa,nine
same,inhibition of cardiac late sodium current (late INa),[2]; residual Na+ flowing after peak INa during an action potential,inhibitor
same,metabolism,cytochrome P-450 3A enzyme (CYP3A) pathway in the liver,rapidly metabolized
same,half-life,in vivo,seven
same,ingested ranolazine excreted in the urine,"ingested, urine",At least 70%
same,block of KCNH2-encoded hERG K+ channels,[3],block
same,storage time,[4],up to 12 months
same,effect on peak amplitude and mechanosensitivity of sodium current,[5],blocks both peak amplitude and mechanosensitivity
same,patients experiencing the most common side effects,"[6]; dizziness, nausea, constipation, and headache",less than 2%
same,safety and tolerability,[6]; used properly and not concurrently with contraindicated drugs,safe and well-tolerated
